Experiments:
[1] = tested on: NF-κB-dependent transcription; test: In vivo basal NF-κB-dependent transcription in NF-κB::Luc reporter mice (abdominal imaging); conditions: 4 hours
Text: ORE1001 was further tested for in vivo anti-inflammatory activity by examining its effects on basal levels of NF-κB-dependent transcription in mice engineered in the germline with a construct containing an NF-κB enhancer linked to a luciferase gene (i.e., NF-κB::Luc mice), such that this NF-κB reporter construct is present in all cells of the mice.
More particularly, transgenic NF-κB::Luc mice were generated using three NF-κB response elements from the Igic light chain promoter fused to a firefly luciferase gene as described by Carlsen et al. (2002) J. Immunol. 168:1441-1446. Pronuclear microinjection of purified construct DNA was used to generate transgenic founders in the C57BL/6 XCBA/J background. Founders were subsequently back crossed to the C57BL/6 albino background. […] Signal data were also quantitated and archived using the Living Image® software. Photons of light were quantitated using an oval region of interest (ROI) of varying sizes depending on the procedure, as described further below.
To test for in vivo effects of ORE1001 on basal levels of NF-κB-dependent transcription, male NF-κB::Luc mice were subjected to quantitative in vivo imaging of the abdominal area (using a fixed ROI of 2.76×3.7 cm) as described above, immediately before, and at 2, […]

[2] = tested on: activator protein-1 (AP-1); test: Basal in vivo reporter luciferase expression in AP-1::Luc mice; conditions: data not shown
[3] = tested on: radiation-induced proctitis; test: Rat model of radiation-induced proctitis (endoscopy, histopathology, body weight); assay type: in vivo; conditions: for proctitis severity (endoscopy, day 8): 17.5 Gy on day 0
Text: A rat model was used to determine whether ORE1001 can reduce severity of radiation-induced proctitis, as assessed by endoscopy, and can reduce histopathological indicators of radiation-induced proctitis. This is a validated model, as described for example in the publications cited individually below and incorporated herein by reference.
Female Lewis rats of body weight 175-200 g and 6-8 weeks old were randomized into 3 groups of 8 animals each, for induction of proctitis by radiation as described below. In addition, a group of 8 female Lewis rats of body weight 175-200 g and 6-8 weeks old were followed as untreated, non-irradiated controls. Animals were acclimated prior to study commencement. The study was performed in animal rooms provided with filtered air at a temperature of 70±5° F. (˜21±3° C.) and relative humidity of 50±20%, and a 12 h/12 h light/dark cycle. Animals were fed with LabDiet 5053 sterile irradiated rat chow. Water was provided ad libitum.
Proctitis was induced by a single 17.5 Gy dose of radiation at a rate of 1 Gy/minute administered to each animal on day 0. Lead shielding was used to cover the animal except for a 3×4 cm area of the lower pelvis, permitting exposure to radiation of an approximately 2 cm length of rectum and distal descending colon. Radiation was generated with a Kimtron 160 kV, 15 mA source at a focal distance of 30 cm, hardened with a 0.35 mm Cu filtration system. Prior to irradiation, animals were anesthetized with an intraperitoneal injection of ketamine (100 mg/kg) and xylazine (5 mg/kg). Animals were inclined in a slightly head-down position, to allow gravity to move non-target abdominal organs out of the radiation path as much as possible.
ORE1001 in a vehicle of 0.5% carboxymethylcellulose (CMC) in sterile water was administered per os at a daily dose of 600 mg/kg in 5 ml/kg vehicle from day 0 to day 7 (first group) or from day −2 to day 7 (second group). A third group received vehicle only, from day −2 to day 7.
All animals were weighed daily and examined for diarrhea and fecal blood. On day 8, all animals were examined by rodent endoscope under isoflurane anesthesia and were scored for severity of proctitis. Following endoscopy, animals were euthanized by CO2 inhalation and the descending colon and rectum to the anus were taken as a single tissue sample for histological examination. Histopathology was recorded by scoring inflammation, edema and necrosis.

[4] = tested on: NF-κB-dependent transcription; test: TNFα-induced activation of NF-κB in recombinant HeLa reporter cells (luciferase); assay type: cell-based
Text: To test the ACE2 inhibitor ORE1001 for anti-inflammatory activity relevant to IBD, effects of the compound on activation of NF-κB-dependent transcription by TNFα were examined in recombinant reporter cells containing a construct with a luciferase reporter gene under control of NF-κB-dependent regulatory sequences, thereby allowing detection of NF-κB-dependent transcription by measuring reporter enzyme using a conventional luciferase activity assay based on detection of generated light.
In particular, HeLa cells (American Type Culture Collection) were grown in Dulbecco's modified Eagles medium (DMEM) supplemented with 10% fetal calf serum and transiently transfected with an NF-κB—luc construct (Stratagene, Inc.), as follows (with all incubation steps at 37 C unless otherwise indicated). Cells were seeded and grown to about 70% confluency in a 10 cm cell culture dish. Plasmid DNA (10 μg) was added to 1 ml serum free DMEM media in a tube. Fugene 6 transfection reagent (30 μl) (Roche) was then pipetted slowly into the tube and the contents were gently mixed by inversion. The mixture was incubated at room temperature for 15 minutes and then added dropwise to cells in one 10 cm dish. Following incubation for 24 hours, cells were detached from the plate with Trypsin-EDTA (Gibco-BRL), transferred to wells in a clear-bottom white 96-well test plate (Fisher) with 100 μl per well serum free DMEM, at a density of 3×10^4 cells per well, and allowed to attach overnight. Compound (ORE1001) was then added to wells at a concentration of approximately 0, 0.008, 0.04, 0.2, 1.0 or 5.0 μM, followed immediately by addition of TNFα (R&D) to a final concentration of 20 ng/ml. After incubation for 6 hours, 100 μl of Bright-Glo Luciferase buffer (Promega, Cat#E2610) was added, and the plate was incubated at room temperature, with mild shaking, for 10 min. Bioluminescence was then measured using a Veritas luminometer (Turner BioSystems). Each plotted data point represents the average bioluminescence of 4 independent wells.

[5] = tested on: LPS-induced NF-κB-dependent transcription; test: LPS-induced NF-κB-dependent transcription in extracted organs of NF-κB::Luc mice (luciferase assay); assay type: in vivo; conditions: 30 mg/kg; 0.5 mg/kg LPS; versus LPS alone
Text: For luciferase assays, organs were extracted and snap frozen in liquid nitrogen. All tissue samples were placed in lysis buffer with inhibitors (Passive Lysis Buffer (Promega) and Complete Mini Protease Inhibitor Cocktail (Roche, Indianapolis, Ind.)), and were homogenized using a tissue homogenizer (Handishear, Hand-held homogenizer, VirTis, Gardiner, N.Y.). Tissue homogenates were centrifuged and clarified lysates were used for luminometer assays and western blots. For the luminometer assays, Luciferase Assay Substrate (Luciferase Assay System, Promega) was prepared as indicated by the manufacturer and placed in disposable cuvettes. […] Background luminescence readings were obtained and the background readings were subtracted from the luminescent data. Protein concentrations were determined using the BCA Protein Assay Kit (Pierce, Rockford, Ill.) following the manufacturer's protocols and analyzed using a VERSAmax tunable microplate reader and associated Softmax Pro version 3.1.2 software (Molecular Devices, Sunnyvale Calif.). The luminescence for each of the protein lysates was calculated as arbitrary units of light per microgram of protein. […]
ORE1001 was further tested for in vivo anti-inflammatory activity by examining its effects on bacterial LPS-induced NF-κB-dependent transcription, in NF-κB::Luc mice. […] Luciferase signal was quantitated from several regions of interest. […]

[6] = tested on: LPS-induced NF-κB signaling; test: In vivo LPS-induced NF-κB-dependent transcription in NF-κB::Luc mice (abdominal imaging)
Text: More particularly, transgenic NF-κB::Luc mice were generated using three NF-κB response elements from the Igic light chain promoter fused to a firefly luciferase gene as described by Carlsen et al. (2002) J. Immunol. 168:1441-1446. Pronuclear microinjection of purified construct DNA was used to generate transgenic founders in the C57BL/6 XCBA/J background. Founders were subsequently back crossed to the C57BL/6 albino background. All experimental protocols were approved by the Institutional Animal Care and Use Committee and conform to the ILAR guide for the care and used of laboratory animals. […] Signal data were also quantitated and archived using the Living Image® software. Photons of light were quantitated using an oval region of interest (ROI) of varying sizes depending on the procedure, as described further below.
ORE1001 was further tested for in vivo anti-inflammatory activity by examining its effects on bacterial LPS-induced NF-κB-dependent transcription, in NF-κB::Luc mice. […] Mice were subjected to quantitative abdominal imaging at 2, 4 and 6 h following LPS administration, as described above. […] Luciferase signal was quantitated from several regions of interest. […]
As shown by the quantitative imaging data in FIG. 4, LPS induced a strong NF-κB-dependent luciferase signal in control mice, indicating a strong NF-κB signaling response, as expected. […]

[7] = 600 mg/kg per os daily, day 0 to day 7
[8] = 600 mg/kg per os daily, day −2 to day 7

`CC(C)C[C@H](N[C@@H](Cc1cncn1Cc1cc(Cl)cc(Cl)c1)C(=O)O)C(=O)O` [ORE1001, (S,S)-2-[1-carboxy-2-[3-(3,5-dichlorobenzyl)-3H-imidazol-4-yl]-ethylamino]-4-methylpentanoic acid] was tested, and the “inhibition of basal in vivo levels of NF-κB-dependent transcription in abdominal ROI” value ([1]; 300 mg/kg subcutaneous, p<0.01) was “over 40%”, the “inhibition of basal in vivo levels of NF-κB-dependent transcription in abdominal ROI” value ([1]; both lower doses, subcutaneous) was “lesser but still significant extents” and the “basal in vivo levels of reporter luciferase expression” value [2] was “no significant effect”. For the same molecule, the “edema score (histopathology)” value [3, 7] was “statistically non-significant trend for reduction”, the “necrosis score (histopathology)” value [3, 7] was “statistically non-significant trend for reduction” and the “sum score (histopathology)” value [3, 7] was “statistically non-significant trend for reduction”. The “proctitis severity (endoscopy, day 8)” value [3, 7] was “minor but statistically non-significant reduction”, the “inflammation score (histopathology)” value [3, 8] was “statistically significant reductions” and the “necrosis score (histopathology)” value [3, 8] was “statistically significant reductions”. The “sum of inflammation, edema and necrosis scores” value [3, 8] was “statistically significant reductions”, the “proctitis severity (endoscopy, day 8)” value [3, 8] was “substantial reduction” and the body weight change ([3]; among the treatments) was “No major differences”. The “inhibition of TNFα-induced activation of NF-κB-dependent transcription” value ([4]; 8 nM, TNFα 20 ng/ml, 6 hours, HeLa) was “over 80%”, the “maximal inhibition of TNFα-induced activation of NF-κB-dependent transcription” value ([4]; 0.2 μM, TNFα 20 ng/ml, 6 hours, HeLa) was “over 95%” and the “TNFα-induced activation of NF-κB-dependent transcription” value ([4]; all tested concentrations (0.008-5.0 μM)) was “significantly inhibited”. The “LPS-induced NF-κB signaling in pancreas and uterus, or any other organ analyzed” value [5] was “no statistically significant decrease”, the “reduction of LPS-induced NF-κB-dependent transcription in stomachs” value [5] was “about 37 fold” and the “LPS-induced NF-κB signaling response, abdominal region” value ([6]; FIG. 4, 30, 100, 300 mg/kg subcutaneous 1 hour before LPS i.v.) was “significantly reduced”. The “LPS-induced NF-κB signaling, abdominal region” value ([6]; FIG. 5, lower dose range 3-100 mg/kg, at 30 and 100 mg/kg) was “significantly reduced”.

From US20100204286A1, “METHOD FOR REDUCING GASTROINTESTINAL ADVERSE EFFECTS OF CYTOTOXIC AGENTS” (priority 2009, published 2010)
